Patent US10806798B2, “Compound with effects of thrombolysis, free radical scavenging and thrombus-targeting” (Shanghai Lumosa Therapeutics Co., Ltd., priority 2012, dated 2020)
Marks after values point to notes of the source that are not given here. Side chains are listed from the residue outwards. Ends that are not written are not given here.

Legend:
[1] = test system: NO free radicals (acetylcholine induced vasodilation); assay: NO radical scavenging: inhibition of acetylcholine induced vasodilation of aorta rings; set-up: species or system Wistar rats; conditions: final concentration 5×10^−6 M; n = 6
Method: Male Wistar rats weighing 250 to 300 g were starved for 12 h before operation with free access to drinking water, and sacrificed by cervical dislocation. Thoracotomy was immediately carried out and thoracic aorta was taken out, connective tissues attached thereto were dissected, and vessels were cut into aorta rings with a length of 3 to 5 mm and placed into a perfusion bath. The bath contained 15 ml Krebs-Henseleit solution and was kept at a constant temperature of 37° C., into which 95% O2-5% CO2 gas was charged. The anchor to which the aorta rings were immobilized was connected to a tension transducer, and vasomotion curves were recorded on a dual-trace recorder at a paper speed of 1 mm/min. With the static tension adjusted to 1.0 g and 30 min of equilibration, norepinephrine at a final concentration of 10^−8 M was dosed to allow the aorta to contract for preexcitation. Norepinephrine was washed off, followed by 30 min of equilibration, and norepinephrine was added into the bath to a final concentration of 10^−8 M. When the contraction tension was steady at a plateau level, 20 μl normal saline (blank), a 20 μl solution of any one of compounds Ia to Il in normal saline (at a final concentration of 5×10^−6 M), or a 20 μl solution of NO free radical scavenger (1,3-dioxo-2-(4′-oxyacetoxyl-phenyl)-4,4,5,5-tetramethylimidazoline, TMMZ) in normal saline (at a final concentration of 5×10^−6 M) was added into the bath. When stabilized, a 20 μl acetylcholine in normal saline was added (at a final concentration of 10^−6 M). The NO scavenging ability of the drugs was expressed as a percentage of inhibition of acetylcholine induced vasodilation.

thrombus = assay: In vivo anti-thrombus experiment (arteriovenous cannula with thread); set-up: species or system SD rats; conditions: 0.1 μmol/kg by gavage; n = 11
Method: SD rats (male, 220 to 230 g) were randomly divided into groups with 11 rats in each group. The rats were fed at a resting state for 1 day and fasted overnight. […] After 30 min, the rats were anesthetized with a 20% urethane solution, and the right carotid artery and the left carotid vein were dissected. A cannula was filled with sodium heparin in normal saline, and one end thereof was inserted into the left vein, while the other end was injected with a certain amount of sodium heparin for anticoagulation with an injector and then inserted into the right artery. Blood flew from the right artery to the left vein through the polyethylene tubing, and the thread attached with thrombus was taken out after 15 min and the weight thereof was recorded. The wet thrombus weight was determined by subtracting the thread weight from the total weight.

rats with stroke = assay: Immediate treatment after stroke onset, neural function scores (Zealonga method, 0 no loss to 5 death); format: in vivo, SD rats; conditions: 0.1 μmol/kg, 24 h after awake, n = 10
Method: The in vivo anti-stroke activity of the present invention was represented by neural function scores, with a lower score indicating higher activity. A 10% chloral hydrate solution (400 mg/kg) was injected intraperitoneally into SD male rats (250-300 g) for anesthesia. An open incision of 2 cm in length was longitudinally made slightly on the right to the center of the neck, and the right common carotid artery trunk, carotid external artery and carotid internal artery were dissected along the margin of the inner side of sternocleidomastoid muscles. The open incisions in the carotid internal artery and the proximal end of the common carotid artery were occluded respectively with noninvasive arterial clips. A small open incision was made across the carotid external artery, and the distal end of the carotid external artery was ligated. The arterial clip at the proximal end of the carotid external artery was released, and 10 μl blood was drawn before the proximal end of the common carotid artery was again occluded with the noninvasive arterial clip. The 10 μl blood drawn was placed in a 1 mL EP vial and kept at RT for 30 min for coagulation of blood, and then transferred into a −20° C. refrigerator for 1 h to allow coagulation. After 1 h, the blood clots were taken out, into which 1 mL saline was added, and then broken into uniform microthrombus by using a steel spatula. The microthrombus suspension was then transferred to a 1 mL injector until use. At the same time when the clip on the carotid internal artery of the rat was released, 1 mL thrombus suspension in the injector was slowly injected from the carotid external artery of the rat to its proximal end, and the suspension was injected into the brain of the rat through the carotid internal artery. Subsequently, the proximal end of the carotid external artery was ligated, the arterial clips on the carotid internal artery and the common carotid artery were released, and blood flow was restored. The jugular common vein of the rats was dissected. The vein was immediately ligated, 3 drops of penicillin was dropped at the wound site, the wound was stitched up, and the animals were allowed to come around, as the sham operation group. Or injection of urokinase in normal saline (positive control group, at a dosage of 20000 IU/kg), normal saline (blank control group, at a dosage of 3 ml/kg), TMMZ in normal saline (component control group, at a dosage of 1 μmol/kg), a thrombolytic peptide ARPAK (SEQ. ID NO. 4), GRPAK (SEQ. ID NO. 5), RPAK (SEQ. ID NO. 3) or PAK in normal saline (component control group, at a dosage of 1 μmol/kg), or one of compounds Ia-Il in normal saline (at a dosage of 0.1 μmol/kg) was carried out. 24 h after the rats were awake, the degree of damage in the neural function was evaluated by the Zealonga method. A score of 0 indicated no sign of loss in neural function, 1 indicated the front limbs on the undamaged side could not stretch out, 2 indicated walking toward the undamaged side, 3 indicated tail-chasing walking in circles toward the undamaged side, 4 indicated involuntary walking with disturbance of consciousness, and 5 indicated death.

| Substance | Percentage of inhibition (Mean ± SD %) of vasodilatation induced by acetylcholine [1] | Wet weight of thrombus (Mean ± SD mg) (thrombus) | Neural function scores (Mean ± SD) (rats with stroke) |
| --- | --- | --- | --- |
| 1,3-dioxo-2-{4′-oxyacetyl-[N^ω-(Ala-Arg-Pro-Ala-Lys)-Lys-Arg-Gly-Asp-Phe]phenyl}-4,4,5,5-tetramethylimidazoline [Ic] | 21.78% | 20.50 ± 2.26 mg | 0.89 ± 1.36 ^c |
| 1,3-dioxo-2-{4′-oxyacetyl-[N^ω-(Ala-Arg-Pro-Ala-Lys)-Lys-Arg-Gly-Asp-Ser]phenyl}-4,4,5,5-tetramethylimidazoline [Ia] | 22.82% | 24.32 ± 2.10 mg | 1.00 ± 1.01 ^b |
| 1,3-dioxo-2-{4′-oxyacetyl-[N^ω-(Ala-Arg-Pro-Ala-Lys)-Lys-Arg-Gly-Asp-Val]phenyl}-4,4,5,5-tetramethylimidazoline [Ib] | – | 20.14 ± 2.45 mg | 0.56 ± 1.01 ^c |
| 1,3-dioxo-2-{4′-oxyacetyl-[N^ω-(Arg-Pro-Ala-Lys)-Lys-Arg-Gly-Asp-Phe]phenyl}-4,4,5,5-tetramethylimidazoline [Ii] | 13.75% | 17.79 ± 2.02 mg | 0.87 ± 1.05 ^c |
| 1,3-dioxo-2-{4′-oxyacetyl-[N^ω-(Arg-Pro-Ala-Lys)-Lys-Arg-Gly-Asp-Ser]phenyl}-4,4,5,5-tetramethylimidazoline [Ig] | 24.40% | 17.89 ± 2.05 mg | 1.00 ± 1.19 ^b |
| 1,3-dioxo-2-{4′-oxyacetyl-[N^ω-(Arg-Pro-Ala-Lys)-Lys-Arg-Gly-Asp-Val]phenyl}-4,4,5,5-tetramethylimidazoline [Ih] | – | 18.24 ± 1.89 mg | 1.33 ± 1.22 ^b |
| 1,3-dioxo-2-{4′-oxyacetyl-[N^ω-(Gly-Arg-Pro-Ala-Lys)-Lys-Arg-Gly-Asp-Phe]phenyl}-4,4,5,5-tetramethylimidazoline [If] | – | 17.99 ± 2.47 mg | 0.60 ± 0.84 ^c |
| 1,3-dioxo-2-{4′-oxyacetyl-[N^ω-(Gly-Arg-Pro-Ala-Lys)-Lys-Arg-Gly-Asp-Ser]phenyl}-4,4,5,5-tetramethylimidazoline | 17.60% | 19.46 ± 1.84 mg | 1.22 ± 1.32 ^b |
| 1,3-dioxo-2-{4′-oxyacetyl-[N^ω-(Pro-Ala-Lys)-Lys-Arg-Gly-Asp-Phe]phenyl}-4,4,5,5-tetramethylimidazoline (K([Lys-Ala-Pro])RGDF; not fully specified (N-terminus); also: 4′-oxyacetylphenyl-1,3-dioxo-4,4,5,5-tetramethylimidazoline (nitronyl nitroxide) conjugate, attachment amine not clear) [Il] | 22.62% | 19.32 ± 2.56 mg | 0.50 ± 0.53 ^c |
| 1,3-dioxo-2-{4′-oxyacetyl-[N^ω-(Pro-Ala-Lys)-Lys-Arg-Gly-Asp-Ser]phenyl}-4,4,5,5-tetramethylimidazoline (K([Lys-Ala-Pro])RGDS; not fully specified (N-terminus); also: 4′-oxyacetylphenyl-1,3-dioxo-4,4,5,5-tetramethylimidazoline (nitronyl nitroxide) conjugate, attachment amine not clear) [Ij] | 27.22% | 19.45 ± 1.79 mg | 0.90 ± 1.10 ^c |
| 1,3-dioxo-2-{4′-oxyacetyl-[N^ω-(Pro-Ala-Lys)-Lys-Arg-Gly-Asp-Val]phenyl}-4,4,5,5-tetramethylimidazoline (K([Lys-Ala-Pro])RGDV; not fully specified (N-terminus); also: 4′-oxyacetylphenyl-1,3-dioxo-4,4,5,5-tetramethylimidazoline (nitronyl nitroxide) conjugate, attachment amine not clear) [Ik] | 11.13% | 22.25 ± 2.25 mg | 0.56 ± 0.53 ^c |
